From patent US6673625B2, “Saccharide sensing molecules having enhanced fluorescent properties” (The Regents of the University of California, priority 1999, dated 2004)

Columns and labels:
[1] = Fluorescence spectra and relative quantum yields of naphthalimide boronates; format: physicochemical; settings: for Emission λmax / Excitation λmax / Relative Quantum Yield: PBS buffer (pH 7.4); for Relative Quantum Yield: equimolar 10.0 μM solutions, 3ay as reference
Excerpt: Sample excitation and emission spectra are shown in FIG. 27 for 3ay and 3cy, along with fluorescence maxima in Table 1. Literature references indicate a higher quantum yield for secondary-amine naphthalimide derivatives than for tertiary amines in otherwise similar compounds. The pragmatic value of this gain was examined, weighing synthetic difficulty against measurable relative quantum yields.
(§1) Summarized Syntheses. As the syntheses are described as a series of analogous compounds with general procedures are given below. Cyclic voltammetry was conducted using a glassy carbon working electrode, platinum counter electrode, and Ag/AgCl reference electrode and carried out in a 0.1 M solution of NBu4ClO4 in acetonitrile. Samples for fluorescence were prepared as 1.00 mM stock solutions in MeOH. A 30.0 μL aliquot of solution was then added to 3.000 mL of the appropriate solvent mixture (a combination of methanol and phosphate buffered saline—PBS). Relative quantum yields were determined by the relative output of equimolar solutions of two compounds using 3ay as a reference. Glucose additions were performed by the addition of a concentrated solution of glucose in PBS to a stirred solution of the fluorescent molecule in methanol/PBS.
(§2) General. All reactions were performed under an atmosphere of N2, followed by work-up in air. Protected boronate esters were stored under vacuum to prevent slow hydrolysis from atmospheric moisture. Unless stated otherwise, all chemicals were purchased from commercial suppliers. Anhydrous solvents from Aldrich were used for all reactions. Starting compounds known in the art such as N-n-butyl-4-chloronaphthalene-1,8-dicarboximide(1ax), 2,2-dimethylpropane-1,3-diyl[o-(bromomethyl) phenyl]boronate, were prepared by literature methods (see e.g. Daffy et al. Chem-Eur J 1998, 4, 1810-1815; de Silva et al., Chem Rev 1997, 97, 1515-1566). Samples for FT IR spectroscopy were prepared as solutions in CHCl3, and only the C═O stretches are reported here. All mass spectra were obtained using electrospray ionization (ESI/MS) with an ionization potential of 50V and a solvent system consisting of 1% acetic acid in 50/50 methanol/water. Cyclic voltammetry was conducted using a glassy carbon working electrode, platinum counter electrode, and Ag/AgCl reference electrode and carried out in a 0.1 M solution of NBu4ClO4 in acetonitrile. Samples for fluorescence measurements were prepared as 1.00 mM stock solutions in MeOH. A 30.0 μL aliquot of solution was then added to 3.000 mL of the appropriate solvent mixture (a combination of methanol and phosphate buffered saline—PBS) giving a final concentration of 10.0 μM for each complex. Changes in pH were carried out by the addition of small volumes of concentrated hydrochloric acid, acetic acid, or sodium hydroxide. Glucose additions were performed by the addition of a concentrated solution of glucose in PBS to a stirred solution of fluorophore in a cuvette. Relative quantum yield measurements were carried out by measuring the relative intensities of equimolar solutions (10.0 μM) of two fluorophores. Compound 3ay was used as the reference.

[2] = Rehm-Weller estimate of free energy of photoinduced electron transfer (PET); format: physicochemical; settings: for ΔGPET: Rehm-Weller estimate; for λ00: average of excitation and emission maxima
Excerpt: The search for new fluorescent glucose transducers based on photoelectron transfer (PET) requires, among other things, an understanding of the electrochemistry of any potential donor-acceptor pair. The free energy of PET (ΔGel) can be calculated using the Rehm-Weller equation shown below:
ΔGel(kcal mol^−1)=23.06[E^0(D^+/D)−E^0(A/A^−)]−wp−wr−ΔG00 where E^0(D^+/D) is the oxidation potential of the donor, E^0(A/A^−) is the reduction potential of the acceptor, and ΔG00 is the free energy corresponding to the equilibrium energy E00 (see e.g. Kavarnos, G. J. In Fundamentals of photoinduced electron transfer, VCH Publishers: New York, N.Y., 1993; p Chapter 1 and Rehm and Weller, Ist. J. Chem. 1970, 8, 259). The quantities wp and wr are Coulombic terms for the products and reactants, and ate found to be small in polar solvents. To simplify predictions, we assume wp and wr to be zero, and estimate E00 as the energy corresponding to [λmax(ex)+λmax(em)]/2 for each fluorophore.
ΔGPET=23.06[E^0(Z^oxidation)−E^0(F^reduction)]−ΔE00],
The electrochemical potentials can be measured using the individual molecular groups before assembling the complete molecule.
Electrochemistry. The search for new fluorescent glucose transducers based on PET requires, among other things, an understanding of the electrochemistry of any potential donor-acceptor pair. The free energy of PET (ΔGel) can be calculated using the Rehm-Weller equation shown in eq 1, where E^0(D^+/D) is the oxidation potential of the […]
ΔGe(kcal mol^−1)=23.06[E^0(D^+/D)−E^0(A/A^−)]−wp−wr−ΔG00 (1) donor, E^0(A/A^−) is the reduction potential of the acceptor, and ΔG00 is the free energy corresponding to the equilibrium energy E00. The quantities wp and wr are Coulombic terms for the products and reactants, and are found to be small in polar solvents. In our case, wr=0 since the reactants are neutral. To simplify predictions, we assume wp to be zero and estimate E00 as the energy corresponding to [λmax(ex)+λmax(em)]/2 for each fluorophore. […]
it is possible to estimate the free energy of photoinduced electron transfer (PET) in these systems (see e.g. Kavamos, G. J. Fundamentals of Photoinduced Electron Transfer, VCH: New York, 1993; pp 37-40). E0(D^+/D) and E^0(A/A^−) correspond to the […] of the electron donor (i.e. amine) and electron acceptor (i.e. fluorophore), respectively. The quantity ΔG00, is the equilibrium energy, which we estimate as the energy corresponding to the equilibrium wavelength λ00. As an estimate of λ00, we use the average of the excitation and emission maxima for each fluorophore. Smaller solvent-dependent work terms for the Coulombic interaction between the reactants and products are left out for simplicity. Since the mechanism of fluorescence switching in these systems depends on PET, this gives us a rough estimate of which fluorophores should give the best response to glucose.

[3] = Glucose testing of naphthalimide boronates by fluorescence; settings: PBS buffer (pH 7.4)
Excerpt: The fluorescence spectra of compounds 3 have been obtained as a function of increasing glucose concentration. […] These values range from 9% to 16% over the four compounds, with the two lower values coming from the two compounds having secondary amino groups. These low values of fractional switching are more than balanced out by the high quantum yields for compounds 3az and 3cz. As a measure of the total signal increase for each system, the product of quantum yield and fractional fluorescence increase are given in Table 1, showing that 3cz is the most promising sensor candidate of the group, as expected.
as §1
as §2, with “A 30.0 μL aliquot of solution was then added to 3.000 mL of the appropriate solvent mixture (a combination of methanol and phosphate buffered saline—PBS) giving a final concentration of 10.0 μM for each complex. Changes in pH were carried out by the addition of small volumes of concentrated hydrochloric acid, acetic acid, or sodium hydroxide. Glucose additions were performed by the addition of a concentrated solution of glucose in PBS to a stirred solution of fluorophore in a cuvette. Relative quantum yield measurements were carried out by measuring the relative intensities of equimolar solutions (10.0 μM) of two fluorophores. Compound 3ay was used as the reference.” left out

[4] = Cyclic voltammetry (glassy carbon, Ag/AgCl reference, 0.1 M NBu4ClO4 in acetonitrile); format: physicochemical; settings: for Amine Oxidation Potential E° (D^+/D) / Fluorophore Reduction Potential E° (A/A^−): Ag/AgCl reference; for first oxidation potential (amine) / first reduction potential: vs. Ag/AgCl
Description: Samples for FT IR spectroscopy were prepared as solutions in CHCl3, and only the C═O stretches are reported. Unless otherwise stated, all NMR spectra were recorded at 500 MHz for ^1H and 125 MHz for ^13C at 20-25° C. using CDCl3 as the solvent. Unless stated otherwise, mass spectra were obtained using electrospray ionization (50 V) with a 50/50 methanol/water solvent mixture with ^1% acetic acid added. Cyclic voltammetry was conducted using a glassy carbon working electrode, platinum counter electrode, and Ag/AgCl reference electrode and carried out in a 0.1 M solution of NBu4ClO4 in acetonitrile.
as §1, §2

[5] = Fluorescence pH switching; settings: for change in fluorescence: pH changed from 11 to 2
Description: Samples for fluorescence were prepared as 1.00 mM stock solutions in MeOH. A 30.0 μL aliquot of solution was then added to 3.000 mL of the appropriate solvent mixture (a combination of methanol and phosphate buffered saline—PBS) giving a final concentration of 10.0 μM for each complex. […] Glucose additions were performed by the addition of a concentrated solution of glucose in PBS to a stirred solution of fluorophore in a cuvette.

[6] = vs. SCE, literature data for parent complexes; cited from earlier work

Compound | Emission λmax [1] [nm] | Excitation λmax [1] [nm] | Relative Quantum Yield [1] | ΔGPET [2] [kcal/mol] | λ00 [2] [nm] | Fluorescence Intensity Increase with added glucose (0 to 600 mg dL^−1) [3] [%] | Amine Oxidation Potential E° (D^+/D) [4] [V] | Fluorophore Reduction Potential E° (A/A^−) [4] [V] | change in fluorescence [5] [%] | first oxidation potential (amine) [4] [V] | first reduction potential [4] [V] | change in quantum yield or wavelength maximum on removal of the THP protecting group [1] | expected ΔGel ([2]; from literature reduction potentials of parent complexes) [kcal/mol] | reduction potential [6] [V] | signal increase ([5]; drop from pH 7 to pH 2) [%]
N-n-Butyl-4-(N′-aminoethylene-N″-ArBmethylamino)naphthalene-1,8-dicarboximide [Compound 3az] | 535 | 435 | 44.2 | -0.62 | 485 | 9 | 1.05 | −1.48 |  |  |  |  |  |  | 
N-n-Butyl-4-(N′-methylaminoethylene-N″-ArBmethylamino)naphthalene-1,8-dicarboximide [Compound 3ay] | 535 | 420 | 1 | -4.8 | 478 | 16 | 0.91 | −1.48 |  |  |  |  |  |  | 
CCN(CC)Cc1ccnc(-c2cc(C)ccn2)c1.O=S(=O)([O-])C(F)(F)F.[C-]#[O+].[C-]#[O+].[C-]#[O+].[Re+].c1ccncc1 [(bpyCH2NEt2)Re(CO)3(py)](OTf), reference compound] |  |  |  |  |  |  |  |  | 61 | 1.35 | −1.20 |  |  |  | 
N-(5′-Tetrahydropyranoxypentyl)-4-(N′-aminoethylene-N″-ArBmethylamino)naphthalene-1,8-dicarboximide [Compound 3cz] | 525 | 435 | 51.2 | -1.2 | 480 | 10 | 1.00 | −1.53 |  |  |  | no significant change |  |  | 
[Cl][Ru][Cl].c1ccc(-c2ccccn2)nc1.c1ccc(-c2ccccn2)nc1.c1ccc(-c2ccccn2)nc1 [[Ru(bpy)3]Cl2, reference compound] |  |  |  |  |  |  |  |  |  |  |  |  | 12.5 | −1.31 | 
Cc1ccnc(-c2cc(CN(C)Cc3ccccc3)ccn2)c1.O=S(=O)([O-])C(F)(F)F.[C-]#[O+].[C-]#[O+].[C-]#[O+].[Re+].c1ccncc1 [[(bpyN)Re(CO)3(py)](OTf)] |  |  |  |  |  |  |  |  | 930 | 1.34 | −1.20 |  |  |  | 21
N-(5′-Tetrahydropyranoxypentyl)-4-(N′-methylaminoethylene-N″-ArBmethylamino)naphthalene-1,8-dicarboximide [Compound 3cy] | 525 | 415 | 1.32 | -5.5 | 470 | 13 | 0.93 | −1.47 |  |  |  |  |  |  | 
